In patent US12377127B2, “Treatment for diseases caused by RNA virus SARS-CoV-2” (Amerimmune, LLC, priority 2020, dated 2025):

Key:
[1] = test system: red blood cell (RBC) layer in the PBMC layer ("red ring"); type: cell-based, human; conditions: PBMCs from COVID-19 patient samples, 1 micromolar, room temperature, 17 hours
[2] = molecular target: T1, Caspase 1 (Homo sapiens, UniProt P29466); assay: Active caspase-1 by FAM-FLICA flow cytometry in PBMCs from Emricasan-treated COVID-19(+) whole blood (Example 7); type: cell-based; conditions: 1 μM
T1 construct: A Fam-FLICA probe specific for Caspase 1 was directly added to 50 μl PBMC; endogenous in cells; host or cells: PBMC (CD3-, CD3+, CD3+CD4+ lymphocytes) purified from human whole blood
T1 sequence (P29466 120-297 limits assumed): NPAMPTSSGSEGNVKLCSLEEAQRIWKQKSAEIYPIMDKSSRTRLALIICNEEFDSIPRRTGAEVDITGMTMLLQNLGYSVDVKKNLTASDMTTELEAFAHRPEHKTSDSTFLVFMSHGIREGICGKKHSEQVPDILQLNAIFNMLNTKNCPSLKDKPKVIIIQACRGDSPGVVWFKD
T1 sequence (P29466 317-404 limits assumed): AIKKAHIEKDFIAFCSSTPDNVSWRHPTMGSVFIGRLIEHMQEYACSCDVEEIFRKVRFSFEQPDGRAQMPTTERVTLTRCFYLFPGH
Procedure: Whole blood from COVID-19(+) patients was incubated either (A) without addition of Emricasan (Untreated) or (B) with Emricasan (Sigma Aldrich, MO, SML2227-5MG), 1 μM final concentration for 3.5 hours at room temperature (Treated). Following incubation with or without Emricasan, PBMCs were purified using an Accuspin System—Histopaque 1077 (Sigma Aldrich, MO, A6929) as per the manufacturer's instructions. Purified Treated and Untreated PBMCs were incubated with nigericin (Immunochemistry Technologies, MN) as per the manufacturer's instructions for 2 hours. A Fam-FLICA probe specific for Caspase 1 was directly added to 50 μl PBMC and then incubated for 1 hour at 37° C. PMBCs were washed with cell wash buffer (Immunochemistry Technologies, MN) to remove unbound FLICA probes. Washed PBMCs were FACS-sorted using CD45 PE-CY7 [H130], CD3 AF700 [UCHT1], CD4 PE [RPA-T4], CD45RO PerCP-EF710 [UCHL], and Viability Dye 780 (Thermo Fisher Scientific, Carlsbad, CA) to identify viable CD3−cells as well as CD3+ cells and CD3+ CD4+ T cells. Lymphocytes were identified using a standard gating schematic that incorporated gating of lymphocytes on a FSC/SSC plot and singlets on a FSC-A/FSC-H plot. Lymphocytes were further identified as CD45+ on a CD45/SSC plot and subsequent CD3−, CD3+, and CD3+ CD4+ cells were identified on a CD45+ CD3/CD4 plot.
In another experiment, whole blood was incubated with 1 μM Emricasan for 17 hours (overnight between 5 PM to 10 AM) at room temperature on a rocker. The same experiment described above to examine active caspase 1 in PBMCs was performed.

[3] = molecular target: T1, Caspase 1; assay: Ex vivo stimulation: active caspase-1 in CD4 T (T-helper) cells after whole blood incubation with caspase inhibitors (Example 9); type: cell-based; conditions: inhibitor 24 hrs, then with or without nigericin; for T-helper cell caspase-1 expression: COVID-19 whole blood samples
Procedure: Apoptosis and pyroptosis were measured by flow cytometry using fluorescent-labeled inhibitors of caspase probe assay (FLICA; Immunochemistry Technologies, Minneapolis, MN). As a control, PBMCs were stimulated with nigericin for 2 hours. FAM-FLICA probes specific for caspase-1 was added to 50 μl PBMC and incubated for 1h at 37° C. Cells were subsequently washed and stained for CD45 PE-CY7 [HI30], CD3 AF700 [UCHT1], CD4 PE [RPA-T4], CD45RO PerCP-EF710 [UCHL1], and Viability Dye 780 (Thermo Fisher Scientific, Carlsbad, CA). Samples were acquired on a 3 laser BD FACS Canto 10. CS&T beads (BD Bioscience, San Jose, CA) were acquired daily to ensure consistent performance of the Canto10. The CANTO10 utilized for this study was validated for T, B, NK, and dendritic cell immunophenotyping clinical diagnostic testing. Denovo FCS Express v6 clinical edition (De Novo Software, Pasadena, CA) was used for flow cytometric analyses.
Active caspase-1 in COVID-19+ patient samples. Whole blood from a COVID-19 positive patient was either (A) untreated or (B) treated with emricasan (1 μM, Sigma Aldrich, MO, SML2227-5MG) or selective caspase-1 inhibitor VX765 overnight at 37° C. in a water bath. Subsequently, PBMCs were purified (Accuspin System—Histopaque 1077; Sigma Aldrich, MO, A6929) and incubated with nigericin (Immunochemistry Technologies, MN) for 2h. A Fam-FLICA probe specific for active caspase-1 was added to 50 μl PBMC and then incubated for 1h at 37° C. PMBCs were washed with cell wash buffer (Immunochemistry Technologies, MN) and stained with CD45 PE-CY7 [H130], CD3 AF700 [UCHT1], CD4 PE [RPA-T4], CD45RO PerCP-EF710 [UCHL1], and Viability Dye 780 (Thermo Fisher Scientific, Carlsbad, CA). Lymphocytes were identified using a standard gating schematic that incorporated gating of lymphocytes on an FSC/SSC plot and singlets on a FSC-A/FSC-H plot. Lymphocytes were further identified as CD45+ on a CD45/SSC plot and subsequent CD3−, CD3+ and CD3+CD4+ cells were identified on a CD45+ CD3/CD4 plot. Shown are the active caspase-1 MFI and % positive for the three cellular populations indicated. […]

[4] = molecular target: T2, caspase-3 (Homo sapiens, UniProt P42574); assay: Caspase-3 in RBCs incubated with patient plasma (Example 9); type: cell-based
T2 construct: EMR suppressed the caspase-3 up-regulation in the COVID-19 plasma incubated samples; endogenous in cells; host or cells: human red blood cells (healthy subjects' RBCs incubated with patient plasma)
T2 sequence (P42574 29-277): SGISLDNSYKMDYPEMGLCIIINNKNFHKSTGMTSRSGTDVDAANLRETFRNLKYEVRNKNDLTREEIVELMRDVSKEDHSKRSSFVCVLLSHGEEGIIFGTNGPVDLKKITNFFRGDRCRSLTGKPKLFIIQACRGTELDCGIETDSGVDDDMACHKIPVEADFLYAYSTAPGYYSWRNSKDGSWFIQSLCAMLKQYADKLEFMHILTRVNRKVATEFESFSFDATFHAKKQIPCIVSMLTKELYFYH
Procedure: Plasma was separated from whole blood following centrifugation at 960 RCF. Cells (RBC and WBC) were either incubated at 37° C. alone or in the presence of trypsin for 1 hour then washed with 10 packed cell volumes of RPMI 1640 incomplete medium. Plasma was either held at room temperature (18-25° C.) or heat inactivated at 56° C. for 1 hr. Plasma was added back to the RBC/WBC in a 1:1 ratio and incubated overnight, rocking at room temperature.
Cellular caspases are not limited to immune cells. […] In the process of Ficoll separation, a layer of RBCs contaminating the PBMC layer was observed, which layer was universally present in all samples from COVID-19 individuals (FIG. 6A). This finding was also present in up to 80% of COVID-19 convalescent subjects. Plasma from acutely infected subjects induced a similar finding when incubated overnight with plasma depleted whole blood of healthy patients.

[5] = COVID-19(+) whole blood, 3.5 hours, room temperature, nigericin 2 hours, CD3-, CD3+, CD3+CD4+ cells, vs untreated, p≤0.005

Row | Compound | "red ring" (RBC layer contaminating PBMCs) [1] | active caspase-1 % positive cells [2, 5] | active caspase-1 MFI [2, 5] | inhibition of nigericin-induced Caspase-1 activity ([2]; whole blood, 17 hours (overnight), room temperature on a rocker, 3 samples from COVID-19 patients) | T-helper cell caspase-1 expression [3] | T-helper cell caspase-1 upregulation ([3]; healthy subjects' whole blood) | RBC caspase-3 up-regulation ([4]; healthy subjects' RBCs incubated with COVID-19 plasma) | RBC caspase-3 baseline expression levels ([4]; influenza-plasma incubated samples)
1 | C[C@H](NC(=O)C(=O)Nc1ccccc1C(C)(C)C)C(=O)N[C@@H](CC(=O)O)C(=O)COc1c(F)c(F)cc(F)c1F [Emricasan, (3S)-3-{[(2S)-2-{[2-(2-tert-butylanilino)-2-oxoacetyl]amino}propanoyl]amino}-4-oxo-5-(2,3,5,6-tetrafluorophenoxy)pentanoic acid] | decrease | significant reduction | significant reduction | seen in only ⅓ sample | suppressed | prevented its upregulation | suppressed | did not change
2 | CCO[C@@H]1OC(=O)C[C@@H]1NC(=O)[C@@H]1CCCN1C(=O)[C@@H](NC(=O)c1ccc(N)c(Cl)c1)C(C)(C)C [VX765, Belnacasan] | – | – | – | – | did not show a strong similar suppressive effect | – | – | –
